In publication PMC10515483, “Structure–Reactivity Studies of 2-Sulfonylpyrimidines Allow Selective Protein Arylation” (Bioconjugate Chemistry, 2023):
In brackets after ≈: the same amount, converted by molar mass.

Assays:
[1] = Hydrolytic stability in KPi buffer without thiol (NMR); format: physicochemical; settings: for % degradation: over 12 hours, 50 mM KPi, footnote a: crashing out of solution, no degradation product; for hydrolysis in aqueous buffer (in words): buffer in the absence of GSH
Description: NMR studies: rate constant determination and hydrolytic stability. 850 µL of 50 mM Kpi buffer solution (pH 8.2 or 7), 20 µL of the appropriate pyrimidine stock s olution (100 mM in DMSO -d6), 20 µL of TMSP stock solution (22.2 mM in DI water), 30 µL DMSO -d6, and 80 µL of GSH stock solution (0.25 M in DI water, reactivity only) were successively added/mixed at room temperature, final pH 7.0 or 6.5 (Table S1). 600 µL of this freshly prepared solution was poured into an NMR tube and immediately […]
transferred to the NMR instrument for acquisition. 1H spectra (16 scans) were recorded every 10 minutes under water suppression conditions. Following acquisition, spectra were analysed using […]
order reaction rate constants (k’).

[2] = Solubility in KPi buffer by NMR with TMSP internal standard; settings: 50 mM KPi aqueous buffer, pH 7, aqueous with cosolvent or surfactant or cyclodextrin, kinetic from dmso stock
From the text: Stability and solubility assays
(§1) TopSpin. Normalised integrations of the pyrimidine aromatic 1H signals in the starting material and
(§2) product were plotted as a function of time (s), using the TMSP peak as standard for integral
(§3) calibration/normalisation and monitoring of compound solubility, allowing extraction of pseudo first
(§4) order reaction rate constants (k’). Second order rate constants (k) were back calculated from the ratio
(§5) of the pseudo first counterparts and the concentration of thiol in solution.
(§6) was confirmed by formation of a single S-arylated product (characteristic 2-alkylthioether signals),
(§7) concomitant with formation of the sulfinic acid by -product (leaving group). Hydrolytic stability
(§8) assessment was performed at pH 7.0 and pH 8.2 in a similar manner, in the absence of thiol.
(§9) Chemoselectivity. Similarly, but replacing GSH by other amino acids , reference 2-
(§10) methylsulfonylpyrimidine 4q in 50 mM KPi (pH 8.2) was incubated with 10 equivalents of either Boc-
(§11) Lys-OH, L-ser-OMe, N-Ac-Tyr-OH or Proline were used.

[3] = GSH arylation rate constants (NMR; UV-vis for fast warheads); format: physicochemical; set-up: key to rate constant (k) for the reaction with GSH / k: NR = no reaction; settings: for k: Table S8, rate constants obtained at pH = 7; for k change (vs ref): ratio to rate constant of 4q, acceleration (+) or deceleration (-); for k/kref / ΔΔG≠1exp: relative to 4q; for ΔΔG≠1exp: via -RTln(k/kref); for times less reactive than 4q: GSH
From the text: We employed nuclear magnetic resonance (NMR) and UV–vis to quantify the reactivity of our 2-SP derivatives and other representative electrophiles (Figure 2) against cysteine. NMR allowed straightforward determination of reaction rate constants through dual monitoring of the consumption of the warhead and formation of the product by integration of their respective NMR signals (Figures S1–S3). It simultaneously provided a direct readout on reaction specificity and hydrolytic stability of the warhead. All measurements were carried out in KPi buffer in the presence of 5% d^6-dmso, which is generally well-tolerated by a wide range of proteins in in vitro studies. N-acetylcysteine methylester (NACME) and L-glutathione (GSH) are useful model cysteine nucleophiles for in vitro studies of electrophilic agents.[32] Mixing reference electrophile 2-methylsulfonylpyrimidine (4q) with NACME or GSH in a 1:10 ratio (pseudo-first-order conditions) allowed extraction of accurate and reproducible second order rate constants (k).
Figure 3 In vitro determination of electrophilic reactivity of compounds. (A) NMR assay setup for warhead/GSH reaction rate constant determination and chemoselectivity monitoring, over a 6 h time scale. Purple bead = GSH. Hydrolytic stability was determined in the same way over 36 h. d^4-Trimethylsilylpropanoate (TMSP, blue box) was used as an internal standard for monitoring the warhead solubility. Second-order reaction rate constants (k) were obtained from their pseudo-first-order counterparts (k′), by time-dependent normalized integration of the disappearing warhead signals. […] (B) Experimental second-order rate constants (y axis, log10 scale) for the reaction of representative 2-SP derivatives (left, 11 out of ca. 40 examples) and previously reported heteroarylsulfones (right) with GSH in a KPi buffer, pH 7.0, 20 °C. All rate constants were calculated as an average of at least two independent measurements. Numerical values and standard deviations at both pH 7.0 and 6.5, along with a full list of 2-SPs and other electrophile types tested, are presented in Tables S2–S6 and Figure S4. The horizontal dashed line marks the reaction rate of 2-methylsulfonylpyrimidine at pH 7.0, as a reference when comparing with other reagents (see main text).
To establish an accurate structure–reactivity profile of 2-SP reagents, we systematically determined their reaction rate constants for the arylation of GSH by NMR, at pH 7.0 and 6.5. This was a prerequisite to (i) quantify the influence of substitution on reaction rates; (ii) accurately assess the tunability and chemoselectivity of 2-SPs for cysteine arylation; (iii) determine the influence of pH on the reaction rates to further inform on the precise reaction mechanism; and (iv) benchmark the overall performance of 2-SPs with those of previously reported fast reacting heteroarylsulfones and other common cysteine reactive warheads (Figure 2C,D).

p53 = system: p53; set-up: method as in PMID 19411067; settings: in vitro; cited from earlier work
[4] = pH 7
From the text: Stability and solubility assays
as §1, §2, §3, §4, §5, §6, §7, §8, §9, §10, §11

[5] = set-up: method as in PMID 11747461; settings: cited from earlier work
[6] = pH 6.5, by NMR, KPi buffer, 5% DMSO-d6
[7] = pH 7.0, by NMR, KPi buffer, 5% DMSO-d6
[8] = pH 6.5, measured by UV titrations
[9] = pH 7.0, measured by UV titrations

Row | Molecule | % degradation ([1]; pH 8.2) | solubility [2] | k [3] | rate constant (k) for the reaction with GSH [3, 6] | rate constant (k) for the reaction with GSH [3, 7] | k change (vs ref) ([3]; pH 7.0) | k/kref [3] | ΔΔG≠1exp [3] | other results
1 | Cc1cnc(S(C)(=O)=O)nc1 [4o] | < 5% | ≥ 2000 µM | 0.0017 M⁻¹ s⁻¹ | NR | 0.0017 ± 0.0015 M⁻¹ s⁻¹ | -15 fold | 0.068 | 1.6 kcal/mol | –
2 | C=C1C(=O)C2CCN1CC2 [APR-244-MQ] | – | – | – | – | – | – | – | – | number of cysteines reacted (p53): up to nine
3 | Cc1cc(C)c([N+](=O)[O-])c(S(C)(=O)=O)n1 [compound 12, 4,6-dimethyl-2-(methylsulfonyl)-3-nitropyridine, reference compound] | < 5% | ≥ 2000 µM | 0.0028 M⁻¹ s⁻¹ | 0.00075 ± 0.00025 M⁻¹ s⁻¹ | 0.0028 ± 0.00025 M⁻¹ s⁻¹ | -9 fold | 0.11 | 1.29 kcal/mol | % degradation ([1]; pH 7.0): < 5%; times less reactive than 4q ([3]; pH 7.0): ca. 5 times
4 | 2-methylsulfonyl-1,3,4-oxadiazole 5-phenyl [compound 8, reference compound] | – | – | – | – | – | +6,400 fold | – | – | Solubility upon mixing (t0) [4]: 100 µM; rate constant (k) for the reaction with GSH [3, 8]: 35 ± 2 M⁻¹ s⁻¹; second order rate constant k with GSH ([3]; pH 7.0, KPi buffer): ≈ 160 M^–1 s^–1; rate constant (k) for the reaction with GSH [3, 9]: 160 ± 9.2 M⁻¹ s⁻¹
5 | Cc1cc(C)c(C#N)c(S(C)(=O)=O)n1 [compound 11, 4,6-dimethyl-2-(methylsulfonyl)nicotinonitrile, reference compound] | – | ≥ 2000 µM | – | 0.00045 ± 5e-05 M⁻¹ s⁻¹ | 0.0023 ± 0.00025 M⁻¹ s⁻¹ | -11 fold | – | – | times less reactive than 4q ([3]; pH 7.0): ca. 5 times
6 | CS(=O)(=O)c1ncc([N+](=O)[O-])cn1 [4w] | – | ~130 µM (≈ 26.4 µg/mL) | – | – | – | +1,880 fold | – | – | hydrolysis in aqueous buffer (in words) [1]: partial, slow hydrolysis; rate constant (k) for the reaction with GSH [3, 8]: 15 ± 0.4 M⁻¹ s⁻¹; rate constant (k) for the reaction with GSH [3, 9]: 47 ± 1 M⁻¹ s⁻¹; melting point: 113 °C
7 | CSc1ncc(I)cn1 [2u] | – | – | – | NR | NR | – | – | – | melting point: 104 °C
8 | COc1nc(OC)nc(S(C)(=O)=O)n1 [compound 19, 2,4-dimethoxy-6-(methylsulfonyl)-1,3,5-triazine] | – | – | unstable | – | – | – | – | – | hydrolysis in aqueous buffer (in words) [1]: rapid hydrolysis in aqueous buffers or by trace/ambient moisture
9 | COC(=O)[C@H](CS)NC(C)=O [NACME, N-acetylcysteine methylester] | – | – | – | – | – | – | – | – | pKa of the sulfhydryl group [5]: 8.3
10 | CS(=O)(=O)c1ncc(Cl)cn1 [4s] | 7% | ≥ 2000 µM | 0.19 M⁻¹ s⁻¹ | 0.027 ± 0.012 M⁻¹ s⁻¹ | 0.19 ± 0.11 M⁻¹ s⁻¹ | +8 fold | 7.6 | -1.2 kcal/mol | –
